Literature values, collected in patent US20090233914A1, “Composition for treatment of nail infections” (Ondine International, Ltd., priority 2008, published 2009).

System: onychomycosis
Conditions: for side effects: human, in vivo, po

| SMILES | side effects | effectiveness of treatment of onychomycosis (oral medicine) | nail clearing in patients for one year (oral, once a day for 90 days) |
| --- | --- | --- | --- |
| OC(Cn1cncn1)(Cn1cncn1)c1ccc(F)cc1F [Fluconazole] | severe side effects |  |  |
| COC1=CC(=O)C[C@@H](C)[C@]12Oc1c(Cl)c(OC)cc(OC)c1C2=O [Griseofulvin] | undesired side effects | largely ineffectual |  |
| CN(C/C=C/C#CC(C)(C)C)Cc1cccc2ccccc12 [Lamisil, terbinafine] |  |  | 70-80 % of patients |
| CCC(C)n1ncn(-c2ccc(N3CCN(c4ccc(OCC5COC(Cn6cncn6)(c6ccc(Cl)cc6Cl)O5)cc4)CC3)cc2)c1=O (centres unmarked) [itraconazole] | somewhat severe |  |  |
